Measured values taken from patent US20110250613A1, “Arrayed Multiple Ubiquitin Binding Domains as Linkage-specific Polyubiquitin Affinity Reagents” (THE JOHNS HOPKINS UNIVERSITY, priority 2009, published 2011).
Where “and” joins values, the source holds several entries; their conditions need not be identical. Equal values may be shown once. Where no end group is shown, it is not given here. The star is where a group is joined. Fluorescein(5-Mal) = O=C1OC2(c3ccc(O)cc3Oc3cc(O)ccc32)c2ccc(N3C(=O)CC(*)C3=O)cc21

Assays:
K48-Ub2 = molecular target: T1, K48-Ub2 (Homo sapiens, UniProt P0CG47, K48R); test: Fluorescence anisotropy binding of fluorescent tUIM peptides to K48-Ub2; conditions: single-site fit, 25° C., pH 7.4
T1 construct: Ub and K48- and K63-linked diUb and tetraUb were made as described; made in house
Protocol: Fluorescence Anisotropy Binding Assays. Fluorescence anisotropy measurements were made using a Fluoromax 4 fluorometer in L format, thermostatted at 25° C. Excitation and emission monochromators were set at 492 nm and 520 nm, respectively. Slit widths were 3 nm for diUb-binding assays (1 mM fluorophore) or 6 nm for tetraUb-binding assays (0.1 mM fluorophore). Anisotropies were calculated by the instrument software, and the overall intensity of the fluorescence signal was monitored at each point with the polarizers oriented at the magic angle. All measurements were made in fluorescence buffer (25 mM Na phosphate [pH 7.4], 150 mM NaCl, 5 mM β-mercaptoethanol, 1 mM EDTA, and either 0.005% surfactant P20 (BIACORE) or 0.05% Brij35). Concentrations of the fluorescent proteins were calculated using the fluorescein extinction coefficient at 494 nm, 68000 M^-1 cm^-1. (poly)Ub concentrations were assessed by absorbance at 280 nm using the extinction coefficient 0.16 (mg/ml)^-1 cm^-1 ([…] and Raasi, 2005). Fluorescence anisotropy data were fit with a single-site binding model as described (Wilkinson, 2004).

monoUb = molecular target: T2, monoUb (Homo sapiens, UniProt P0CG47); test: Fluorescence anisotropy binding of fluorescent UIM peptides to monoUb
T2 construct: Ub and K48- and K63-linked diUb and tetraUb were made as described; made in house
Text: (§1) Fluorescent Labeling. Rap80 tUIM peptides were fluorescently-labeled on the sulfhydryl group of C121 (see FIG. 1). For longer Rap80 constructs, all cysteines except C121 were mutated to serine for site-specific labeling. Ataxin-3 and Vps27 UIM peptides were labeled on a single cysteine introduced at the C-terminus. Fluorescein-5-maleimide (Pierce) was coupled to cysteines following the manufacturer's instructions. After desalting through Sephadex G-25 resin, fluorescein-labeled tUIM peptides were separated from unlabeled peptides by anion-exchange chromatography (MonoQ column, GE Biosciences) by elution with a NaCl gradient in 50 mM Tris buffer, pH 7.9. […] Fluorescence Anisotropy Binding Assays. Fluorescence anisotropy measurements were made using a Fluoromax 4 fluorometer in L format, thermostatted at 25° C. […] Anisotropies were calculated by the instrument software, and the overall intensity of the fluorescence signal was monitored at each point with the polarizers oriented at the magic angle. All measurements were made in fluorescence buffer (25 mM Na phosphate [pH 7.4], 150 mM NaCl, 5 mM β-mercaptoethanol, 1 mM EDTA, and either 0.005% surfactant P20 (BIACORE) or 0.05% Brij35). Concentrations of the fluorescent proteins were calculated using the fluorescein extinction coefficient at 494 nm, 68000 M^-1 cm^-1. […]

K63-Ub2 = molecular target: T3, K63-Ub2 (Homo sapiens, UniProt P0CG47, K63R); test: Fluorescence anisotropy binding of fluorescent tUIM peptides to K63-Ub2; conditions: fluorescence anisotropy
T3 construct: Ub and K48- and K63-linked diUb and tetraUb were made as described; made in house
Text: Fluorescent Labeling. Rap80 tUIM peptides were fluorescently-labeled on the sulfhydryl group of C121 (see FIG. 1). For longer Rap80 constructs, all cysteines except C121 were mutated to serine for site-specific labeling. Ataxin-3 and Vps27 UIM peptides were labeled on a single cysteine introduced at the C-terminus. Fluorescein-5-maleimide (Pierce) was coupled to cysteines following the manufacturer's instructions. After desalting through Sephadex G-25 resin, fluorescein-labeled tUIM peptides were separated from unlabeled peptides by anion-exchange chromatography (MonoQ column, GE Biosciences) by elution with a NaCl gradient in 50 mM Tris buffer, pH 7.9. The labeled peptides were essentially 100% pure by SDS-PAGE and Coomassie blue staining, and MALDI-TOF mass spectrometry confirmed the addition of a single fluorescein moiety. Fluorescence Anisotropy Binding Assays. Fluorescence anisotropy measurements were made using a Fluoromax 4 fluorometer in L format, thermostatted at 25° C. Excitation and emission monochromators were set at 492 nm and 520 nm, respectively. Slit widths were 3 nm for diUb-binding assays ([…]) or 6 nm for tetraUb-binding assays ([…]). Anisotropies were calculated by the instrument software, and the overall intensity of the fluorescence signal was monitored at each point with the polarizers oriented at the magic angle. All measurements were made in fluorescence buffer (25 mM Na phosphate [pH 7.4], 150 mM NaCl, 5 mM β-mercaptoethanol, 1 mM EDTA, and either 0.005% surfactant P20 (BIACORE) or 0.05% Brij35). Concentrations of the fluorescent proteins were calculated using the fluorescein extinction coefficient at 494 nm, 68000 M^-1 cm^-1. (poly)Ub concentrations were assessed by absorbance at 280 nm using the extinction coefficient 0.16 (mg/ml)^-1 cm^-1 ([…] and Raasi, 2005). Fluorescence anisotropy data were fit with a single-site binding model as described (Wilkinson, 2004). The equilibrium constants for wild-type Vps27 peptide binding to K63 and K48 Ub4 were determined by competition with the fluorescent Vps27 7aa linker peptide as described (Wilkinson, 2004).

K63-Ub4 and K48-Ub4 = test: GST pull-down assay with 125I-labeled K63- or K48-Ub4; assay type: binding
Protocol: Pull-Down Assays. GST-UBA protein was added to 15 μl of glutathione-agarose and the beads were washed with binding buffer [25 mM phosphate pH 7.4, 150 mM NaCl, 10 mM β-mercaptoethanol, 1 mM EDTA, 0.05% (v/v) Brij35]. ^125I-labeled K63 or K48-Ub4 (1 μM) was then added in 100 μl of binding buffer plus 1 mg ml^−1 BSA, and the beads agitated gently for 20 min. at room temperature. The specific radioactivities of ^125I-labeled K63- and K48-Ub4 were normalized beforehand with unlabeled chains. The beads were then washed quickly 2 or 3 times with binding buffer. The bound chains were eluted with SDS-PAGE sample buffer and resolved by SDSPAGE. The Ub4 bands were excised from the gel and quantified with a gamma-counter. “Bound counts” in FIG. 12d and FIG. 15d is the radioactivity (cpm) for a particular band minus the counts in the corresponding gel slice in the negative-control lane.

K63-Ub4 [1] = molecular target: T4, K63-Ub4 (Homo sapiens, UniProt P0CG47, K63R); test: SPR of captured GST-UBA proteins with K63-Ub4; assay type: binding; conditions: SPR (Table 4) versus fluorescence anisotropy (Table 5)
T4 construct: Ub and K48- and K63-linked diUb and tetraUb were made as described; made in house
Protocol: Surface Plasmon Resonance. SPR analyses was performed on a Biacore 3000 instrument at 25° C. in HBS-EP buffer (Biacore). Anti-GST antibody (Biacore) was immobilized by amine coupling on a Biacore CM5 chip. GST-UBA proteins were captured on a measurement surface at a density of 150-400 RU; an antibody-coupled surface served as the reference. Ubn chains were applied to the chip with a 5 μl/min flow rate and recorded the response; 50 mM glycine pH 1.8 or 15 mM NaOH was used to remove GST-UBA proteins and renew the surface. The data was fit with a single-site binding model as described in Wilkinson, 2004.

K63-Ub4 [2] = test: Fluorescence anisotropy binding of fluorescent free UBA domains to K63-Ub4; conditions: free UBA domains
Text: (§2) Fluorescent Labeling. Ede1 UBA, hHR23A UBA1, Dsk2 UBA and Ddi1 UBA were produced as intein fusions and fluorescently labeled using expressed protein ligation as described in Scheibner et al., 2003. The dipeptide used for Ede1 labeling was Cys-Lys, with NHS-rhodamine (Pierce) coupled to the lysine amino group, and was a kind gift from Philip Cole (Johns Hopkins School of Medicine). MALDI mass spectroscopy confirmed the addition of the fluorescent dipeptide to the Ede1 UBA domain and that there was complete cleavage of the initiating methionine residue. hHR23A UBA1, Dsk2, and Ddi1 UBAs were labeled in a similar way, except that the dipeptide contained a fluorescein moiety instead of rhodamine. The fluorescein-labeled dipeptide was made as described in Scheibner et al., 2003. […]
(§3) Fluorescence Anisotropy Binding Assays. Fluorescence anisotropy measurements were performed as described (Sims and Cohen, 2009) using excitation and emission maxima of 492 nm/520 nm (fluorescein), 556 nm/569 nm (Alexa Fluor 546), or 555 nm/578 nm (rhodamine), in binding buffer at 25° C. The concentrations of the fluorescent proteins were calculated using published extinction coefficients (Invitrogen-Molecular Probes). polyUb concentrations were assessed from absorbance at 280 nm using the Ub extinction coefficient of 0.16 (mg per ml)^−1 cm^'1.49. […]

K48-Ub4 [3] = test: Fluorescence anisotropy binding of fluorescent free UBA domains to K48-Ub4; conditions: free fluorescent UBA domain
Text: as §2, §3

K63-Ub4 [4] = molecular target: T4, K63-Ub4; test: Fluorescence anisotropy binding of fluorescent tUIM peptides to K63-Ub4; conditions: fluorescence anisotropy, single-site fit, 25° C., pH 7.4
Text: as §1

K48-Ub4 [5] = test: Fluorescence anisotropy binding of fluorescent tUIM peptides to K48-Ub4
Text: as §1

[6] = single-site fit, 25° C., pH 7.4

Substance: PSSHHHHHHSSGLVPRGSHMTEEEQEQEAREVNSQEEEEEELLRKAIAESLNSC(Fluorescein(5-Mal))RPS [UIM2]
- Kd (K48-Ub2): 200 µM
- Kd (monoUb): 520 µM
- Kd (K63-Ub2; text of Example 2): 470 µM

Substance: GST-fmm: functionally monomeric mixture: GST-His homodimers and GST-His/GST-Ede1 heterodimers at about 6:1 (GSATTPKSLAVEELSGMGFTEEEAHNALEKCNWDLEAATNFLLDSA; also: GST-His fusion, mixture of GST-His homodimers and GST-His/GST-Ede1 heterodimers at about 6:1)
- Ub4 linkage preference by pull-down (K63-Ub4 and K48-Ub4; 125I-labeled K63-Ub4 versus K48-Ub4): no linkage preference

Substance: GST-UBA hHR23A UBA1: GST fusion of human hHR23A UBA1 domain; sequence in Table 3
- K63-Ub4 affinity of the GST fusion tighter than the free domain (K63-Ub4 [1]): > 6 fold

Substance: PSSHHHHHHSSGLVPRGSHMTEEEQFALALKMSEQEAEEEEELLRKAIAESLNSC(Fluorescein(5-Mal))RPS [Rap80 no linker]
- Kd (K63-Ub2; [6]): 47 µM

Substance: Ddi1
- difference in Kd for K63- and K48-Ub4 (K63-Ub4 [2]): < 2 fold
- Kd (K48-Ub4 [3]): 50 µM

Substance: PSSHHHHHHSSGLVPRGSHMTEEEQFALALKMSEQEADMEEEEELLRKAIAESLNSC(Fluorescein(5-Mal))RPS [Rap80 ataxin linker]
- Kd (K48-Ub2): 143 µM
- Kd (K63-Ub4 [4]): 20 µM
- Kd (K63-Ub2; [6]): 115 µM

Substance: PSSHHHHHHSSGLVPRGSHMTEEEQFALALKMSEQEAREVNSQEEEEEELLNSC(Fluorescein(5-Mal))RPS [UIM1]
- Kd (K48-Ub2): 280 µM
- Kd (monoUb): 510 µM
- Kd (K63-Ub2; text of Example 2): 230 µM

Substance: PSSHHHHHHSSGLVPRGSHMTEEEQFALALKMSEQEAAAEEEEELLRKAIAESLNSC(Fluorescein(5-Mal))RPS [Rap80 2A linker]
- Kd (K48-Ub2): 180 µM
- Kd (K63-Ub4 [4]): 19 µM
- Kd (K63-Ub2; [6]): 110 µM

Substance: ataxin-3 (WT): human ataxin-3 tandem UIM peptide, 2-residue linker DM
- Kd (K48-Ub2): 100 µM
- preference for K48-Ub4 over K63-Ub4 (K48-Ub4 [5]; fluorescence anisotropy Kd values, Table 2): 5 fold
- Kd (K48-Ub4 [5]; fluorescence anisotropy, single-site fit, 25° C., pH 7.4): 3.3 µM
- Kd (K63-Ub2; [6]): 91 µM

Substance: GST-UBA Ede1: GST fusion of the yeast Ede1 UBA domain, dimeric; sequence in Table 3 (GSATTPKSLAVEELSGMGFTEEEAHNALEKCNWDLEAATNFLLDSA; also: GST fusion, dimeric)
- K63-Ub4 affinity of the GST fusion tighter than the free domain (K63-Ub4 [1]): 9 fold
- preference for K63-Ub4 over K48-Ub4 by pull-down (K63-Ub4 and K48-Ub4; 125I-labeled Ub4 1 μM, bound counts, listed as GST-Ede1): 12 fold and > 11 fold
